Laboratory results reported in patent publication US20220313698A1, “MODULATORS OF CYSTIC FIBROSIS TRANSMEMBRANE CONDUCTANCE REGULATOR” (Vertex Pharmaceuticals Incorporated, priority 2019, published 2022).

Biological target: CFTR-mediated chloride transport (Homo sapiens, UniProt P13569)
Experiment: Corrector Assay A - membrane potential dye assay (enteroid cells)
Details: for Corrector Assay A % activity: % of chloride transport of triple combination control (1 μM (14S)-dispiro macrocycle + 3 μM tezacaftor + 300 nM ivacaftor); for EC50: read-out: Corrector Assay A EC50, human intestinal enteroid cells, 18-24 h incubation, acute 10 μM forskolin + 300 nM ivacaftor

Corrector Assay A % activity | EC50 [nM] | SMILES
+ (+ is <30%) |  | CC(C)(C)c1ccc2c(n1)N1C[C@@H](CC[C@@H](C(=O)NC3CC4(CCNCC4)C3)Nc3cccc(n3)S(=O)(=O)NC2=O)CC1(C)C [Compound 223]
+++ (+++ is >60%) | < 1000 | CC(C)(C)c1ccc2c(n1)N1C[C@@H](CC[C@H](c3cccc(C4CNC4)n3)Nc3cccc(n3)S(=O)(=O)NC2=O)CC1(C)C [Compound 152]
++ (++ is 30-60%) | < 1000 | CC(C)(C)c1ccc2c(n1)N1C[C@@H](CCC(c3ccc(N4CCCC4)cn3)Nc3cccc(n3)S(=O)(=O)NC2=O)CC1(C)C (stereo partly drawn) [Compound 163]
++ (++ is 30-60%) | < 1000 | CC(C)(C)c1ccc2c(n1)N1C[C@@H](CC[C@@H](c3cc(C4CCOCC4)ccn3)Nc3cccc(n3)S(=O)(=O)NC2=O)CC1(C)C (single isomer, unassigned) [Compound 122]
++ (++ is 30-60%) | 1000 to 3000 | CN(C)CC(=O)N1CCC([C@@H]2CC[C@@H]3CN(c4nc(C(C)(C)C)ccc4C(=O)NS(=O)(=O)c4cccc(n4)N2)C(C)(C)C3)CC1 (single isomer, unassigned) [Compound 237]
++ (++ is 30-60%) | < 1000 | CC(C)(C)c1ccc2c(n1)N1C[C@@H](CCC(c3cc(N)ccn3)Nc3cccc(n3)S(=O)(=O)NC2=O)CC1(C)C (single isomer, unassigned) [Compound 49]
++ (++ is 30-60%) | < 1000 | CC(C)(C)c1ccc2c(n1)N1C[C@@H](CC[C@@H](C3CCN(c4ncccn4)CC3)Nc3cccc(n3)S(=O)(=O)NC2=O)CC1(C)C (single isomer, unassigned) [Compound 219]
+++ (+++ is >60%) | < 1000 | CC(C)(C)c1ccc2c(n1)N1C[C@@H](CC[C@H](c3cccc(N4CCCCC4)n3)Nc3cccc(n3)S(=O)(=O)NC2=O)CC1(C)C [Compound 174]
++ (++ is 30-60%) | < 1000 | CC(C)(O)/C=C/CC1CC[C@@H]2CN(c3nc(C(C)(C)C)ccc3C(=O)NS(=O)(=O)c3cccc(n3)N1)C(C)(C)C2 (single isomer, unassigned) [Compound 24]
++ (++ is 30-60%) | < 1000 | CC(C)(C)c1ccc2c(n1)N1C[C@@H](CCC(c3cc(C4CCNCC4)ccn3)Nc3cccc(n3)S(=O)(=O)NC2=O)CC1(C)C (stereo partly drawn) [Compound 124, (14S)-8-tert-butyl-12,12-dimethyl-17-[4-(piperidin-4-yl)pyridin-2-yl]-2λ^6-thia-3,9,11,18,23-pentaazatetracyclo[17.3.1.111,14.05,10]tetracosa-1(23),5(10),6,8,19,21-hexaene-2,2,4-trione]
++ (++ is 30-60%) | < 1000 | CC(C)(C)c1ccc2c(n1)N1C[C@@H](CCC3CCCC(=O)N3c3cccc(n3)S(=O)(=O)NC2=O)CC1(C)C (stereo partly drawn) [Compound 14, (10S)-16-tert-Butyl-12,12-dimethyl-22λ^6-thia-2,13,15,21,27-pentaazapentacyclo[21.3.1.110,13.02,7.014,19]octacosa-1(26),14(19),15,17,23(27),24-hexaene-3,20,22,22-tetrone]

The next lines start with the molecule.

SMILES | Corrector Assay A % activity | EC50 [nM]
CC1(C)C[C@@H]2CC[C@@H](c3ccccn3)Nc3cccc(n3)S(=O)(=O)NC(=O)c3ccc(-c4c(Cl)cccc4Cl)nc3N1C2 [Compound 342] | ++ (++ is 30-60%) | < 1000
CC(C)(C)c1ccc([C@@H]2CC[C@@H]3CN(c4nc(C(C)(C)C)ccc4C(=O)NS(=O)(=O)c4cccc(n4)N2)C(C)(C)C3)cc1 (single isomer, unassigned) [Compound 37] | ++ (++ is 30-60%) | < 1000
CC(C)(C)c1ccc2c(n1)N1CC(CCN(c3ccccc3)C(=O)c3cccc(c3)S(=O)(=O)NC2=O)CC1(C)C (single isomer, unassigned) [Compound 267, 8-tert-Butyl-12,12-dimethyl-17-phenyl-2λ^6-thia-3,9,11,17-tetraazatetracyclo[17.3.1.111,14.05,10]tetracosa-1(22),5,7,9,19(23),20-hexaene-2,2,4,18-tetrone] | + (+ is <30%) | > 3000
CC(C)(C)c1ccc2c(n1)N1C[C@@H](CCC(c3ccc(N4CCOCC4)cn3)Nc3cccc(n3)S(=O)(=O)NC2=O)CC1(C)C (stereo partly drawn) [Compound 199] | +++ (+++ is >60%) | < 1000
CC(C)(C)c1ccc2c(n1)N1C[C@@H](CC[C@@H](c3cccc(C4=CCOCC4)n3)Nc3cccc(n3)S(=O)(=O)NC2=O)CC1(C)C [Compound 149] | + (+ is <30%) | < 1000
CC1(C)CCCc2cc3c(nc21)N1C[C@@H](CCC(c2ccccn2)Nc2cccc(n2)S(=O)(=O)NC3=O)CC1(C)C (single isomer, unassigned) [Compound 263] | +++ (+++ is >60%) | < 1000
CC(C)(C)NCc1ccnc([C@@H]2CC[C@@H]3CN(c4nc(C(C)(C)C)ccc4C(=O)NS(=O)(=O)c4cccc(n4)N2)C(C)(C)C3)c1 (single isomer, unassigned) [Compound 62] | ++ (++ is 30-60%) | 1000 to 3000
CC1(C)OCCc2cc3c(nc21)N1C[C@@H](CCC(c2ccccn2)Nc2cccc(n2)S(=O)(=O)NC3=O)CC1(C)C (single isomer, unassigned) [Compound 213] | ++ (++ is 30-60%) | 1000 to 3000
CC(C)CC#Cc1ccc2c(n1)N1C[C@@H](CC[C@H](c3ccccn3)Nc3cccc(n3)S(=O)(=O)NC2=O)CC1(C)C [Compound 157, (14S,17R)-12,12-dimethyl-8-(4-methylpent-1-yn-1-yl)-17-(pyridin-2-yl)-2λ^6-thia-3,9,11,18,23-pentaazatetracyclo[17.3.1.111,14.05,10]tetracosa-1(22),5,7,9,19(23),20-hexaene-2,2,4-trione] | +++ (+++ is >60%) | < 1000
CN1CCN(c2ccc(C3CC[C@@H]4CN(c5nc(C(C)(C)C)ccc5C(=O)NS(=O)(=O)c5cccc(n5)N3)C(C)(C)C4)nc2)CC1 (stereo partly drawn) [Compound 200] | +++ (+++ is >60%) | < 1000
CC(C)(C)CCOc1ccn(-c2ccc3c(n2)N2C[C@@H](CC[C@H](c4ccccn4)Nc4cccc(n4)S(=O)(=O)NC3=O)CC2(C)C)n1 [Compound 320, (14S,17R)-8-[3-(3,3-dimethylbutoxy)-1H-pyrazol-1-yl]-12,12-dimethyl-17-(pyridin-2-yl)-2λ^6-thia-3,9,11,18,23-pentaazatetracyclo[17.3.1.111,14.05,10]tetracosa-1(22),5,7,9,19(23),20-hexaene-2,2,4-trione] | +++ (+++ is >60%) | < 1000
CC(C)(C)c1ccc2c(n1)N1C[C@@H](CC[C@@H](c3cccc(N4CCCCC4)n3)Nc3cccc(n3)S(=O)(=O)NC2=O)CC1(C)C [Compound 173] | + (+ is <30%) | < 1000
CC(C)(C)c1ccc2c(n1)N1CC(CCCNc3cncc(n3)S(=O)(=O)NC2=O)CC1(C)C (single isomer, unassigned) [Compound 252, 8-tert-butyl-12,12-dimethyl-2λ^6-thia-3,9,11,18,21,23-hexaazatetracyclo[17.3.1.111,14.05,10]tetracosa-1(22),5,7,9,19(23),20-hexaene-2,2,4-trione] | ++ (++ is 30-60%) | < 1000
CC(C)(C)CCOc1ccn(-c2ccc3c(n2)N2C[C@@H](CC[C@H](c4cc(C(C)(C)C)ccn4)Nc4cccc(n4)S(=O)(=O)NC3=O)CC2(C)C)n1 [Compound 305, (14S,17R)-17-(4-tert-butylpyridin-2-yl)-8-[3-(3,3-dimethylbutoxy)-1H-pyrazol-1-yl]-12,12-dimethyl-2λ^6-thia-3,9,11,18,23-pentaazatetracyclo[17.3.1.111,14.05,10]tetracosa-1(22),5,7,9,19(23),20-hexaene-2,2,4-trione] | +++ (+++ is >60%) | < 1000
Cn1ccc(-c2ccc(C3CC[C@@H]4CN(c5nc(C(C)(C)C)ccc5C(=O)NS(=O)(=O)c5cccc(n5)N3)C(C)(C)C4)nc2)n1 (stereo partly drawn) [Compound 59] | + (+ is <30%) | < 1000
CC(C)(C)c1ccc2c(n1)N1C[C@@H](CC[C@@H](c3ccc(C(F)(F)F)cn3)Nc3cccc(n3)S(=O)(=O)NC2=O)CC1(C)C (single isomer, unassigned) [Compound 81] | + (+ is <30%) | < 1000
CN(C)CCNc1cccc([C@@H]2CC[C@@H]3CN(c4nc(C(C)(C)C)ccc4C(=O)NS(=O)(=O)c4cccc(n4)N2)C(C)(C)C3)n1 [Compound 188] | ++ (++ is 30-60%) | < 1000
CC1(C)C[C@@H]2CC[C@H](c3cccc(C(F)(F)F)n3)Nc3cccc(n3)S(=O)(=O)NC(=O)c3ccc(-c4cccc(F)n4)nc3N1C2 [Compound 308, (14S,17R)-8-(6-fluoropyridin-2-yl)-12,12-dimethyl-17-[6-(trifluoromethyl)pyridin-2-yl]-2λ^6-thia-3,9,11,18,23-pentaazatetracyclo[17.3.1.111,14.05,10]tetracosa-1(22),5,7,9,19(23),20-hexaene-2,2,4-trione] | ++ (++ is 30-60%) | < 1000
CC1(C)C[C@@H]2CC[C@H](c3ccccn3)Nc3cccc(n3)S(=O)(=O)NC(=O)c3ccc(C4=CCCCC4)nc3N1C2 [Compound 329] | +++ (+++ is >60%) | < 1000
CC(C)(C)c1ccc2c(n1)N1C[C@@H](CC[C@@H](c3cccc(CCCN)n3)Nc3cccc(n3)S(=O)(=O)NC2=O)CC1(C)C [Compound 133] | + (+ is <30%) | < 1000
Cc1ccc2cc3c(nc2c1)N1C[C@@H](CC[C@@H](c2cc(C(C)(C)C)ccn2)Nc2cccc(n2)S(=O)(=O)NC3=O)CC1(C)C (single isomer, unassigned) [Compound 8] | ++ (++ is 30-60%) | < 1000
